According to US11882828B2, “Mosquito vector control compositions, methods and products utilizing same” (priority 2015, dated 2024):

Experiments:
Assay in all cases: whole plant or invertebrate
[1] = system: Aedes aegypti (Yellow fever mosquito); details: Aedes aegypti
Method: […] Once the deposits were dry, five non-blood fed adult female Aedes aegypti (between two to five days old) were added to each well, and sustained with a 10% sucrose solution in a cotton wool plug. Assessment of the knockdown after 1 hour, and mortality after 48 hours was carried out.
(§1) In case of multiple tests, the mean value is reported.

[2] = system: Anopheles stephensi (Indian malaria mosquito); details: Anopheles stephensi
Method: […] Once the deposits were dry, five non-blood fed adult female Anopheles stephensi (between two to five days old) were added to each well, and sustained with a 10% sucrose solution in a cotton wool plug. Assessment of the knockdown after 1 hour, and mortality after 48 hours was carried out.
as §1

Aedes aegypti = details: Aedes aegypti, 48 h
Method: (§2) The individual wells of six (6) well tissue culture plates were treated with 250 μl of an ethanol solution containing a test compound at a defined concentration. Once the deposits were dry, ten non-blood fed adult female Aedes aegypti or Anopheles stephensi (each between two to five day old) were added to each well, and sustained with a 10% sucrose solution in a cotton wool plug.
(§3) Assessment of the mortality was carried out at 48 hours.
(§4) Each treatment was replicated twice, with the mean mortality recorded.

Anopheles stephensi = details: Anopheles stephensi, 48 h
Method: as §2, §3, §4

Row | Compound | pest or weed control at 20 ppm ([1]; 1 h, read-out: Knockdown) | mortality at 20 ppm ([1]; 48 h) | pest or weed control at 20 ppm ([2]; 1 h, read-out: Knockdown) | mortality at 20 ppm ([2]; 48 h) | other results
1 | CC1(C)[C@H](C(=O)O[C@H](C#N)c2cccc(Oc3ccccc3)c2)[C@@H]1/C=C(\Cl)C(F)(F)F (racemic) [Lambda-cyhalothrin, reference compound] | – | – | – | – | pest or weed control at 2 ppm ([1]; 1 h, read-out: Knockdown): 92%; mortality at 2 ppm ([1]; 48 h): 100%; pest or weed control at 2 ppm ([2]; 1 h, read-out: Knockdown): 83%; mortality at 2 ppm ([2]; 48 h): 100%; mortality at 0.2 ppm (Aedes aegypti): 99%; mortality at 0.2 ppm (Anopheles stephensi): 84%
2 | CO/C=C(/C(=O)OC)c1ccccc1Oc1ncc(C(C)(C)C)s1 [AA] | 0% | 0% | – | – | –
3 | C=CCOC(=O)c1cccn1/C(=C\OC)C(=O)OC [AB, reference compound] | 60% | 100% | 100% | 100% | mortality at 5 ppm (Aedes aegypti): 75%; mortality at 5 ppm (Anopheles stephensi): 80%
4 | CO/C=C(/C(=O)OC)c1ccccc1COc1cccc(C(F)(F)F)n1 [AC, Picoxystrobin, reference compound] | 0% | 40% | 100% | 100% | mortality at 5 ppm (Aedes aegypti): 4%; mortality at 5 ppm (Anopheles stephensi): 75%
5 | CCc1nnc(Oc2ccccc2/C(=C\OC)C(=O)OC)s1 [AD] | 0% | 0% | – | – | –
6 | CCCCO/N=C(C)/C(C)=N/OCc1ccccc1/C(=C\OC)C(=O)OC [B] | 0% | 0% | – | – | –
7 | CO/C=C(/C(=O)OC)c1ccccc1COc1cc(C(F)(F)F)nc(OC(C)C)n1 [C, Fluacrypyrim] | 0% | 0% | – | – | –
8 | CO/C=C(/C(=O)OC)c1ccccc1CO/N=C(C)/C(C)=N/OC [Compound 1] | 50% | 90% | 40% | 100% | mortality at 5 ppm (Aedes aegypti): 74%; mortality at 5 ppm (Anopheles stephensi): 100%
9 | CO/C=C(/C(=O)OC)c1ccccc1Oc1nnc(C(C)(C)C)o1 [Compound 2, methyl (E)-2-[2-[(5-tert-butyl-1,3,4-oxadiazol-2-yl)oxy]phenyl]-3-methoxy-prop-2-enoate] | 0% | 80% | 40% | 100% | mortality at 5 ppm (Aedes aegypti): 90%; mortality at 5 ppm (Anopheles stephensi): 100%
10 | CO/C=C(/C(=O)OC)c1ccccc1Oc1cncc(OCC(F)(F)F)n1 [Compound 3] | 0% | 100% | 100% | 100% | –
11 | CO/C=C(/C(=O)OC)c1ccccc1Oc1cc(C(C)(C)C)ncn1 [Compound 9] | 0% | 80% | 100% | 100% | –
12 | CO/C=C(/C(=O)OC)c1ccccc1Oc1cc(C(F)(F)F)ncn1 [Compound 11, methyl (E)-3-methoxy-2-[2-[6-(trifluoromethyl)pyrimidin-4-yl]oxyphenyl]prop-2-enoate] | 100% | 100% | 80% | 100% | –
13 | CO/C=C(/C(=O)OC)c1ccccc1Oc1nccc(C(C)(C)C)n1 [Compound 14] | 0% | 40% | 0% | 100% | –
14 | CO/C=C(/C(=O)OC)c1ccccc1CO/N=C(\C)c1cc(C(F)(F)F)ccn1 [Compound 15] | 50% | 100% | 40% | 100% | mortality at 5 ppm (Aedes aegypti): 70%; mortality at 5 ppm (Anopheles stephensi): 95%
15 | CCCc1cccc(OCc2ccccc2/C(=C\OC)C(=O)OC)n1 [Compound 16] | 0% | 80% | 20% | 100% | mortality at 5 ppm (Aedes aegypti): 20%; mortality at 5 ppm (Anopheles stephensi): 95%
16 | CO/C=C(/C(=O)OC)c1ccccc1CO/N=C(\C)c1cc(C(F)(F)C(F)(F)F)ncn1 [Compound 18] | 0% | 40% | 100% | 100% | mortality at 5 ppm (Aedes aegypti): 70%; mortality at 5 ppm (Anopheles stephensi): 100%
17 | CO/C=C(/C(=O)OC)c1ccccc1COc1ncccc1C(F)(F)F [Compound 19, Methyl (E)-3-methoxy-2-[2-[[3-(trifluoromethyl)-2-pyridyl]oxymethyl]phenyl]prop-2-enoate] | 20% | 100% | 40% | 100% | mortality at 5 ppm (Aedes aegypti): 75%; mortality at 5 ppm (Anopheles stephensi): 100%
18 | CO/C=C(/C(=O)OC)c1ccccc1Oc1ncc([N+](=O)[O-])s1 [D] | 0% | 0% | – | – | –
19 | CO/C=C(/C(=O)OC)c1ccccc1CCc1cc(C(F)(F)F)ccn1 [E] | 0% | 0% | – | – | –
20 | CO/C=C(/C(=O)OC)c1ccccc1CO/N=C(\C)c1cc(C(F)(F)F)ncn1 [G] | 0% | 0% | – | – | –

Row | Compound | pest or weed control at 20 ppm ([1]; 1 h, read-out: Knockdown) | mortality at 20 ppm ([1]; 48 h) | pest or weed control at 20 ppm ([2]; 1 h, read-out: Knockdown) | mortality at 20 ppm ([2]; 48 h) | other results
21 | CO/C=C(/C(=O)OC)c1ccccc1CO/N=C(\C)c1cccc(C(F)(F)F)n1 [H] | 0% | 0% | – | – | –
22 | CO/C=C(/C(=O)OC)c1ccccc1Oc1cc(Cl)ccn1 [I] | 0% | 40% | – | – | –
23 | CO/C=C(/C(=O)OC)c1ccccc1Oc1cc(OCC(F)(F)F)ncn1 [J] | 0% | 0% | – | – | –
24 | CCCc1nnc(Oc2ccccc2/C(=C\OC)C(=O)OC)o1 [K] | 0% | 0% | – | – | –
25 | CCC(CC)/C(C)=N/OCc1ccccc1/C(=C\OC)C(=O)OC [L] | 0% | 0% | – | – | –
26 | CO/C=C(/C(=O)OC)c1ccccc1Oc1nc(CC(C)(C)C)ns1 [M] | 0% | 0% | – | – | –
27 | CO/C=C(/C(=O)OC)c1ccccc1Oc1nccc(OC(C)(C)C)n1 [N] | 0% | 0% | – | – | –
28 | CO/C=C(/C(=O)OC)c1ccccc1Oc1ncnc(C2CC2)n1 [O] | 0% | 0% | – | – | –
29 | CO/C=C(/C(=O)OC)c1ccccc1COc1cccc(C(C)(C)C)n1 [P] | 0% | 0% | – | – | –
30 | CN/C(C)=N/OCc1ccccc1/C(=C\OC)C(=O)OC [Q] | 0% | 0% | – | – | –
31 | CO/C=C(/C(=O)OC)c1ccccc1CO/N=C(C)/C=C/c1ccc(Cl)cc1 [R, Enoxastrobin] | 0% | 0% | – | – | –
32 | CO/C=C(/C(=O)OC)c1ccccc1COc1cc(-c2ccc(Cl)cc2)nn1C [S, Pyraoxystrobin] | 0% | 0% | – | – | –
33 | CCCCc1c(C)c2ccc(OCc3ccccc3/C(=C\OC)C(=O)OC)cc2oc1=O [T, Coumoxystrobin] | 0% | 0% | – | – | –
34 | CO/C=C(/C(=O)OC)c1ccccc1COc1cc(C(F)(F)F)nc(Nc2ccc(Cl)cc2Cl)n1 [U, Pyriminostrobin] | 0% | 0% | – | – | –
35 | CO/C=C(/C(=O)OC)c1ccccc1COc1nc2cc(C(F)(F)F)ccc2nc1C(F)(F)F [V] | 0% | 0% | – | – | –
36 | CO/C=C(/C(=O)OC)c1ccccc1COc1nc2ccc(C(F)(F)F)cc2nc1C(F)(F)F [W] | 0% | 0% | – | – | –
37 | CO/C=C(/C(=O)OC)c1ccccc1COc1nccnc1C#N [X] | 0% | 0% | – | – | –
38 | CO/C=C(/C(=O)OC)c1ccccc1Oc1nnc(C(C)(C)C)s1 [Y] | 0% | 0% | – | – | –
39 | CCC(C)c1noc(Oc2ccccc2/C(=C\OC)C(=O)OC)n1 (centres unmarked) [Z] | 0% | 0% | – | – | –
